For 21 compounds, IC50 results are on record in US9850203B2, “Autotaxin inhibitor compounds” (PharmAkea, Inc., priority 2013, dated 2017).

Structures are written as SMILES. Bounds are passed on as bounds.

For orientation: IC50 means the midpoint of a concentration-inhibition curve. A higher IC50 goes with lower potency.

For this assay, the target named is human autotaxin (ATX) (Homo sapiens (Human), UniProt Q13822). Description: Human Autotaxin Assay. The assay is classed as biochemical. To be noted: concentrated conditioned media from Hep3B cells; LPC substrate, choline release. Put shortly: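 Autotaxin source: Hep3B conditioned medium concentrated 20-fold, preincubated with compound 15 min at 37° C in lyso-PLD buffer (100 mM Tris pH 9, 500 mM NaCl, 5 mM MgCl2, 5 mM CaCl2, 0.05% Triton X-100, ±0.2% fatty-acid-free HSA). 100 uM LPC (14:0) then added, 1.5-3 hours at 37° C; choline release measured.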

Compound `Cc1c(Sc2cccc(C(=O)O)c2)c2ccc(Cl)c(F)c2n1CC(=O)N1CC(C)(C)c2ccc(F)cc21` [Compound 1-34, 3-((6-Chloro-7-fluoro-1-(2-(6-fluoro-3,3-dimethylindolin-1-yl)-2-oxoethyl)-2-methyl-1H-indol-3-yl)thio)benzoic acid] showed a concentration for half-maximal inhibition (IC50) of at most 500 nM. On to `Cc1c(Sc2cccc(C(=O)O)c2F)c2ccc(Cl)c(F)c2n1CC(=O)N1C[C@@H](O)[C@H](F)C1` [Compound 2-66, 3-((6-Chloro-7-fluoro-1-(2-((3R,4R)-3-fluoro-4-hydroxypyrrolidin-1-yl)-2-oxoethyl)-2-methyl-1H-indol-3-yl)thio)-2-fluorobenzoic acid], for which the half-maximal inhibitory concentration (IC50) was at most 500 nM. The same measure for `Cc1c(Sc2cccc(C(=O)O)c2)c2ccc(Cl)c(F)c2n1CC(=O)N1CC2(CC2)c2cc(F)ccc21` [Compound 1-32, 3-((6-Chloro-7-fluoro-1-(2-(5′-fluorospiro[cyclopropane-1,3′-indolin]-1′-yl)-2-oxoethyl)-2-methyl-1H-indol-3-yl)thio)benzoic acid]: at most 500 nM. Take `O=C(O)c1cccc(Sc2c(Cl)n(CCN3CC4(CC4)c4ccccc43)c3c(F)c(Cl)ccc23)c1F` [Compound 5-2, Sodium 3-((2,6-dichloro-7-fluoro-1-(2-(spiro[cyclopropane-1,3′-indolin]-1′-yl)ethyl)-1H-indol-3-yl)thio)-2-fluorobenzoate]: the IC50 was at most 500 nM. With `Cc1c(Sc2cccc(C(=O)O)c2F)c2ccc(Cl)c(F)c2n1CCN1CC2(CCC2)c2ccccc21` [Compound 2-75, 3-((6-Chloro-7-fluoro-2-methyl-1-(2-(spiro[cyclobutane-1,3′-indolin]-1′-yl)ethyl)-1H-indol-3-yl)thio)-2-fluorobenzoic acid], the half-maximal inhibitory concentration (IC50) was at most 500 nM.

The compound `Cc1c(Sc2cccc(C(=O)O)c2)c2ccc(Cl)c(F)c2n1CC(=O)Nc1cc(Cl)cc(Cl)c1` [Compound 1-4, 3-((6-Chloro-1-(2-((3,5-dichlorophenyl)amino)-2-oxoethyl)-7-fluoro-2-methyl-1H-indol-3-yl)thio)benzoic acid] returned an IC50 above 3000 nM. Under `Cc1c(Sc2cccc(C(=O)O)c2F)c2ccc(Cl)c(F)c2n1CC(=O)N1CCc2ccncc21` [Compound 2-60, 3-((6-Chloro-1-(2-(2,3-dihydro-1H-pyrrolo[2,3-c]pyridin-1-yl)-2-oxoethyl)-7-fluoro-2-methyl-1H-indol-3-yl)thio)-2-fluorobenzoic acid] stands at most 500 nM; under `Cc1c(Sc2cccc(C(=O)O)c2F)c2ccc(Cl)c(F)c2n1CC(=O)N1CC(C#N)C1` [Compound 2-67, 3-((6-Chloro-1-(2-(3-cyanoazetidin-1-yl)-2-oxoethyl)-7-fluoro-2-methyl-1H-indol-3-yl)thio)-2-fluorobenzoic acid], at most 500 nM; under `Cc1c(Sc2cccc(C(=O)O)c2F)c2ccc(Cl)c(F)c2n1CC(=O)N1CCC(O)(c2ccccc2)C1` (stereo not drawn) [Compound 2-68, 3-((6-Chloro-7-fluoro-1-(2-(3-hydroxy-3-phenylpyrrolidin-1-yl)-2-oxoethyl)-2-methyl-1H-indol-3-yl)thio)-2-fluorobenzoic acid], at most 500 nM. The compound `Cc1c(Sc2cccc(C(=O)O)c2F)c2ccc(Cl)c(F)c2n1CC(=O)N1C[C@H](O)[C@@H](N(C)C)C1` [Compound 2-69, 3-((6-Chloro-1-(2-((3S,4S)-3-(dimethylamino)-4-hydroxypyrrolidin-1-yl)-2-oxoethyl)-7-fluoro-2-methyl-1H-indol-3-yl)thio)-2-fluorobenzoic acid] registered an IC50 of at most 500 nM.

With `Cc1c(Sc2cccc(C(=O)O)c2)c2ccc(Cl)c(F)c2n1CC(=O)N1CCC(Cc2ccc(F)cc2)CC1` [Compound 1-60, 3-((6-Chloro-7-fluoro-1-(2-(4-(4-fluorobenzyl)piperidin-1-yl)-2-oxoethyl)-2-methyl-1H-indol-3-yl)thio)benzoic acid], the concentration for half-maximal inhibition (IC50) lay within 500 to 3000 nM. The same measure for `Cc1c(Sc2cccc(C(=O)O)c2)c2ccc(Cl)c(F)c2n1CC(=O)N1CCC12CCN(C)CC2` [Compound 1-87, 3-((6-Chloro-7-fluoro-2-methyl-1-(2-(7-methyl-1,7-diazaspiro[3.5]nonan-1-yl)-2-oxoethyl)-1H-indol-3-yl)thio)benzoic acid]: at most 500 nM.

`Cc1c(Sc2cccc(C(=O)O)c2)c2ccc(Cl)c(F)c2n1CC(=O)N1CCC(c2ccc(F)cc2)C1` (single isomer, unassigned; enantiomer a) [Compound 1-74, 3-((6-Chloro-7-fluoro-1-(2-(3-(4-fluorophenyl)pyrrolidin-1-yl)-2-oxoethyl)-2-methyl-1H-indol-3-yl)thio)benzoic acid Enantiomer A] showed a 50% inhibitory concentration (IC50) of 500 to 3000 nM. The compound `Cc1c(Sc2cccc(C(=O)O)c2)c2ccc(Cl)c(F)c2n1CC(=O)N1CCC(c2ccncc2)C1` (stereo not drawn) [Compound 1-89, 3-((6-Chloro-7-fluoro-2-methyl-1-(2-oxo-2-(3-(pyridin-4-yl)pyrrolidin-1-yl)ethyl)-1H-indol-3-yl)thio)benzoic acid] displayed a half-maximal inhibitory concentration (IC50) of at most 500 nM. Under `O=C(O)c1cccc(Sc2c(Cl)n(CC(=O)N3CC4(CCC4)c4ccccc43)c3c(F)c(Cl)ccc23)c1F` [Compound 4-121, Sodium 3-((2,6-dichloro-7-fluoro-1-(2-oxo-2-(spiro[cyclobutane-1,3′-indolin]-1′-yl)ethyl)-1H-indol-3-yl)thio)-2-fluorobenzoate] stands at most 500 nM; under `Cc1c(Sc2cccc(C(=O)O)c2F)c2ccc(Cl)c(F)c2n1CC(=O)N1CCC(C)(O)C1` (stereo not drawn) [Compound 2-61, 3-((6-Chloro-7-fluoro-1-(2-(3-hydroxy-3-methylpyrrolidin-1-yl)-2-oxoethyl)-2-methyl-1H-indol-3-yl)thio)-2-fluorobenzoic acid], at most 500 nM; under `Cc1c(Sc2cccc(C(=O)O)c2)c2ccc(Cl)c(F)c2n1CC(=O)N1CCC(C)(C)CC1` [Compound 1-44, 3-((6-Chloro-1-(2-(4,4-dimethylpiperidin-1-yl)-2-oxoethyl)-7-fluoro-2-methyl-1H-indol-3-yl)thio)benzoic acid], at most 500 nM. For `Cc1c(Sc2cccc(C(=O)O)c2)c2ccc(Cl)c(F)c2n1CC(=O)N1CCCC2(CNC(=O)O2)C1` (stereo not drawn) [Compound 1-69, 3-((6-Chloro-7-fluoro-2-methyl-1-(2-oxo-2-(2-oxo-1-oxa-3,7-diazaspiro[4.5]decan-7-yl)ethyl)-1H-indol-3-yl)thio)benzoic acid], the IC50 is at most 500 nM.

`Cc1c(Sc2cccc(C(=O)O)c2F)c2ccc(Cl)c(F)c2n1CC(=O)N1CCC2(C1)OCCO2` [Compound 2-72, 3-((6-Chloro-7-fluoro-2-methyl-1-(2-oxo-2-(1,4-dioxa-7-azaspiro[4.4]nonan-7-yl)ethyl)-1H-indol-3-yl)thio)-2-fluorobenzoic acid] registered an IC50 of at most 500 nM. Take `Cc1c(Sc2cccc(C(=O)O)c2F)c2ccc(Cl)c(F)c2n1CC(=O)N1CC2(CC2)c2cc(F)ccc21` [Compound 3-23, 3-[6-Chloro-7-fluoro-1-[2-(5′-fluorospiro[cyclopropane-1,3′-indoline]-1′-yl)-2-oxo-ethyl]-2-methyl-indol-3-yl]sulfanyl-2-fluoro-benzoic acid]: the concentration for half-maximal inhibition (IC50) was at most 500 nM. On to `Cc1c(Sc2cccc(C(=O)O)c2)c2ccc(Cl)c(F)c2n1CC(=O)N1CC(N2CCC(F)(F)C2)C1` [Compound 1-42, 3-((6-Chloro-1-(2-(3-(3,3-difluoropyrrolidin-1-yl)azetidin-1-yl)-2-oxoethyl)-7-fluoro-2-methyl-1H-indol-3-yl)thio)benzoic acid], for which the 50% inhibitory concentration (IC50) is at most 500 nM.
